Measured values reported in patent publication US4725676A, “5-(3,5-disubstituted phenylazo)-2-hydroxybenzene-acetic acids and salts and lactones thereof having a potentially inhibitory effect on 15-hydroxy-prostaglandin dehydrogenase” (Pharmacia AB, priority 1984, dated 1988).

Columns and labels:
Format in all cases: biochemical
[1] = biological target: T1, human PGDH (Homo sapiens, UniProt P15428); assay: Inhibitory effect on human PGDH isolated from placenta; settings: radioactively labelled prostaglandin PGF 2, read-out: 50% PGDH inhibition at a concentration of
T1 construct: human PGDH isolated from placenta; from tissue; host or cells: human placenta
T1 sequence (P15428 1-266): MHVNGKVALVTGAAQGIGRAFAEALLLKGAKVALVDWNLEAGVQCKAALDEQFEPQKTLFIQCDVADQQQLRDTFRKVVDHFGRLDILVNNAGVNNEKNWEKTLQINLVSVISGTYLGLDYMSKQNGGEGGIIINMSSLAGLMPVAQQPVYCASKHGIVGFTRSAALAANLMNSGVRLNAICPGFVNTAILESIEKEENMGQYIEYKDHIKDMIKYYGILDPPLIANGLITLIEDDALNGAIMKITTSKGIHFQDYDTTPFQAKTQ
Protocol: The compound of Example 2 was studied in respect of its inhibitory effect on human PGDH isolated from placenta.
(§1) Radioactively labelled prostaglandin PGF 2 was incubated with the enzyme as according to Berry, C. N. et al., Biochem. Pharmacol. 1983, Vol. 32, p. 2863.
(§2) The compound of Example 2 was added in various concentrations, and the inhibition was measured as stated above.

[2] = biological target: T2, PGDH from rat colon (Rattus norvegicus, UniProt O08699); assay: Inhibition of PGDH from rat colon; settings: similarly tested, read-out: 50% PGDH inhibition at
T2 construct: PGDH from rat colon; from tissue; host or cells: rat colon
T2 sequence (O08699 1-266): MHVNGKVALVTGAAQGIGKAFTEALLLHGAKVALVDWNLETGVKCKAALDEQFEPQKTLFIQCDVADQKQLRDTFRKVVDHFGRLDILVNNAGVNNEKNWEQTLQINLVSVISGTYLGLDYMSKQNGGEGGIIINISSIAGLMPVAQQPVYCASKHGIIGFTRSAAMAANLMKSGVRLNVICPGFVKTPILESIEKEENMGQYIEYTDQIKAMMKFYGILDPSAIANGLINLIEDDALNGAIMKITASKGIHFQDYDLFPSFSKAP
Protocol: as §1, §2
When similarly tested against PGDH from rat colon the compound gave 50% PGDH inhibition at 56 nM. […] It should be noted that (V) is the strongest inhibitor of this type known in the literature.

[3] = test system: cyclooxygenase; assay: Inhibition of cyclooxygenase; settings: at concentrations of from 10 to 1,000 nM

Structure (SMILES): COC(=O)c1cc(N=Nc2ccc(O)c(CC(=O)O)c2)cc(C(=O)OC)c1 [Example 2, 5-(3,5-bis-(methoxycarbonyl)-phenylazo)-2-hydroxy-phenylacetic acid]
- IC50 [1]: 28 nM
- IC50 [2]: 56 nM
- inhibition of cyclooxygenase detected [3]: No inhibition whatever

Structure (SMILES): CCOC(=O)c1ccc(N=Nc2ccc(O)c(CC(=O)O)c2)cc1 [V, reference compound]
- IC50 [1]: 290 nM
